In US6608082B1, “Treatment of erectile dysfunction using isoquinoline compound melanocortin receptor ligands” (Lion Bioscience AG, priority 1998, dated 2003):

Tests used:
MCR-1 = target: T1, MCR-1 (Homo sapiens, UniProt Q01726); assay: Melanocortin receptor binding assay, competition with 125I-HP 467, HEK 293 cells expressing hMCR-1; conditions: inhibition of binding of 125I-HP 467, HEK 293 cells expressing MCR-1, TRG 2414 library; for IC50: read-out: MC-1 IC50
T1 construct: expressed in transfected cells; host or cells: HEK 293
T1 sequence (Q01726 whole entry): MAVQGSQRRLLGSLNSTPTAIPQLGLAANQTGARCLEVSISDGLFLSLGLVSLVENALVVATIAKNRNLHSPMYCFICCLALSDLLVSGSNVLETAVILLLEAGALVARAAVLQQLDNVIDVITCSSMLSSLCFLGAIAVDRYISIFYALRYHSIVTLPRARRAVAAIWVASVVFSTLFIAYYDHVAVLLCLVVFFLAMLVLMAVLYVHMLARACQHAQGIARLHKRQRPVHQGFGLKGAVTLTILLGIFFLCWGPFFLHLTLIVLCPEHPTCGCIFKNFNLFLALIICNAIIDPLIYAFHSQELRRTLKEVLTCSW
In short: (§1)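 Test compounds compete on intact HEK 293 cells carrying hMCR-1 (2×10^4 per tube) or hMCR-4 (4×10^3 per tube), suspended in PBS, 10% calf serum, 1 mM CaCl2.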

MCR-4 = target: T2, MCR-4 (Homo sapiens, UniProt P32245); assay: Melanocortin receptor binding assay, competition with 125I-HP 467, HEK 293 cells expressing hMCR-4; conditions: inhibition of binding of 125I-HP 467, HEK 293 cells expressing MCR-4, TRG 2414 library; for IC50: read-out: MC-4 IC50
T2 construct: expressed in transfected cells; host or cells: HEK 293
T2 sequence (P32245 whole entry): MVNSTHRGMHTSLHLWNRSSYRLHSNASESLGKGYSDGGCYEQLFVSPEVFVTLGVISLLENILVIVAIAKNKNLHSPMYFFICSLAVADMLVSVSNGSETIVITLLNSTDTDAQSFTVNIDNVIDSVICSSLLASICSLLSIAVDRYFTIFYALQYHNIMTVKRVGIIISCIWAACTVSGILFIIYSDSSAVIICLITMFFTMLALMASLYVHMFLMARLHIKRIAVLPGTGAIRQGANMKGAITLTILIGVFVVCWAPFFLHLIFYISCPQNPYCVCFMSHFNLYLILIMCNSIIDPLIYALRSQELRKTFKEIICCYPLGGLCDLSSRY
In short: as §1

Compound | IC50 (MCR-1) | IC50 (MCR-4) | MC-1 IC50 (MCR-1) | MC-4 IC50 (MCR-4)
COc1ccc(CNCC2c3ccccc3CN(CCCCC(CN)NCC(C)c3ccc(CC(C)C)cc3)C2c2ccc(Cl)cc2Cl)cc1 (stereo not shown) [TRG 2414-24] | 25.5 µM | 37.5 µM |  | 
COc1ccc(CCNCC2c3ccccc3CN(CCCC[C@H](N)CN)C2c2ccc(Cl)cc2Cl)cc1 (stereo partly shown) [TRG 2414-25] | 1.39 µM | 0.52 µM |  | 
COc1ccc(CCNCC2c3ccccc3CN(CCCCC(CN)NCc3ccccc3)C2c2ccc(Cl)cc2Cl)cc1 (stereo not shown) [TRG 2414-27] | 2.65 µM | 2.6 µM |  | 
NCC(N)CCCCN1Cc2ccccc2C(CNCc2ccccc2)C1c1ccc(Cl)cc1Cl (stereo not shown) [TRG 2414-29] | 5.66 µM | 4.4 µM |  | 
NCC(CCCCN1Cc2ccccc2C(CNCc2ccccc2)C1c1ccc(Cl)cc1Cl)NCc1ccccc1 (stereo not shown) [TRG 2414-31] | 3.9 µM | 7.03 µM |  | 
CC(C)Cc1ccc(C(C)CNC(CN)CCCCN2Cc3ccccc3C(CNCc3ccccc3)C2c2ccc(Cl)cc2Cl)cc1 (stereo not shown) [TRG 2414-32] | 28.3 µM | 32.1 µM |  | 
NCC(CCCCN1Cc2ccccc2C(CNC2CCCCCC2)C1c1ccc(Cl)cc1Cl)NCc1ccccc1 (stereo not shown) [TRG 2414-35] | 2.17 µM | 5.67 µM |  | 
NCC(CCCCN1Cc2ccccc2C(CNC2CCCCC2)C1c1ccc(Cl)cc1Cl)NCCc1ccccc1 (stereo not shown) [TRG 2414-38] | 1.92 µM | 3.96 µM |  | 
CC(C)Cc1ccc(C(C)CNC(CN)CCCCN2Cc3ccccc3C(CNC3CCCCC3)C2c2ccc(Cl)cc2Cl)cc1 (stereo not shown) [TRG 2414-40] | 8.64 µM | 17.5 µM |  | 
NCC(N)CCCCN1Cc2ccccc2C(CNCc2ccccc2C(F)(F)F)C1c1cc(C(F)(F)F)cc(C(F)(F)F)c1 (stereo not shown) [TRG 2414-41] | 34.2 µM | 15.6 µM |  | 
NCC(CCCCN1Cc2ccccc2C(CNCc2ccccc2C(F)(F)F)C1c1cc(C(F)(F)F)cc(C(F)(F)F)c1)NCCc1ccccc1 (stereo not shown) [TRG 2414-42] | 32.8 µM | 30.2 µM |  | 
NCC(CCCCN1Cc2ccccc2C(CNCc2ccccc2C(F)(F)F)C1c1cc(C(F)(F)F)cc(C(F)(F)F)c1)NCc1ccccc1 (stereo not shown) [TRG 2414-43] | 56.9 µM | 42 µM |  | 
CCOc1ccccc1CNCC1c2ccccc2CN(CCCCC(CN)NCCc2ccccc2)C1c1cc(C(F)(F)F)cc(C(F)(F)F)c1 (stereo not shown) [TRG 2414-46] | 6.54 µM | 4.25 µM |  | 
CCOc1ccccc1CNCC1c2ccccc2CN(CCCCC(CN)NCc2ccccc2)C1c1cc(C(F)(F)F)cc(C(F)(F)F)c1 (stereo not shown) [TRG 2414-47] | 7.74 µM | 7.51 µM |  | 
CCOc1ccccc1CNCC1c2ccccc2CN(CCCCC(CN)NCC(C)c2ccc(CC(C)C)cc2)C1c1cc(C(F)(F)F)cc(C(F)(F)F)c1 (stereo not shown) [TRG 2414-48] | 33.5 µM | 38.8 µM |  | 
COc1ccccc1CCNCC1c2ccccc2CN(CCCCC(CN)NCCc2ccccc2)C1c1cc(C(F)(F)F)cc(C(F)(F)F)c1 (stereo not shown) [TRG 2414-50] | 8.09 µM | 4.94 µM |  | 

Next, values leading:

IC50 (MCR-1) | IC50 (MCR-4) | MC-1 IC50 (MCR-1) | MC-4 IC50 (MCR-4) | Compound
13.9 µM | 7.42 µM |  |  | COc1ccc(CCNCC2c3ccccc3CN(CCCCC(CN)NCC(C)c3ccc(CC(C)C)cc3)C2c2ccc(Cl)cc2Cl)cc1 (stereo not shown) [TRG 2414-28]
5.39 µM | 6.21 µM |  |  | NCC(CCCCN1Cc2ccccc2C(CNCc2ccccc2)C1c1ccc(Cl)cc1Cl)NCCc1ccccc1 (stereo not shown) [TRG 2414-30]
3.55 µM | 4.42 µM |  |  | NCC(CCCCN1Cc2ccccc2C(CNC2CCCCCC2)C1c1ccc(Cl)cc1Cl)NCCc1ccccc1 (stereo not shown) [TRG 2414-34]
8.65 µM | 9.92 µM |  |  | CC(C)Cc1ccc(C(C)CNC(CN)CCCCN2Cc3ccccc3C(CNC3CCCCCC3)C2c2ccc(Cl)cc2Cl)cc1 (stereo not shown) [TRG 2414-36]
 |  | no fit | no fit | CC(C)Cc1ccc(C(C)CNC(CN)CCCCN2Cc3ccccc3C(CNCc3ccccc3C(F)(F)F)C2c2cc(C(F)(F)F)cc(C(F)(F)F)c2)cc1 (stereo not shown) [TRG 2414-44]
6.34 µM | 0.92 µM |  |  | CCOc1ccccc1CNCC1c2ccccc2CN(CCCCC(N)CN)C1c1cc(C(F)(F)F)cc(C(F)(F)F)c1 (stereo not shown) [TRG 2414-45]
3.77 µM | 0.32 µM |  |  | COc1ccccc1CCNCC1c2ccccc2CN(CCCC[C@H](N)CN)C1c1cc(C(F)(F)F)cc(C(F)(F)F)c1 (stereo partly shown) [TRG 2414-49]
